Where a name gives a salt, the structure may show the parent alone.
Tests used:
[1] = system: TNFα gene expression in U87MG xenograft; assay: Inhibition of TNFα induced TNFα gene expression in U87MG xenograft; format: in vivo, Balb/c athymic nude mice
Description: TNFα stimulates IKKβ signaling and triggers TNFα gene expression. In order to confirm that a compound is targeting IKKβ in vivo, the compound is screened for its ability to inhibit TNFα induced TNFα gene expression in a U87MG (human glioblastoma cell line) xenograft. 3×10^6 U87MG tumor cells are implanted subcutaneously into the right lateral flank of female Balb/c athymic nude mice (6-8 weeks old). […] Nude mice are orally administered with the test compound at 2 h prior to tumor harvesting. TNFα (R&D, Cat: 210-TA) is intravenously injected at 1 h before tumor harvesting at 8 μg/kg.
Total RNA is extracted using the RNEASY® mini Kit (QIAGEN®, Cat: 74126). cDNA is synthesized using the High Capacity cDNA reverse transcription kit (ABI, Cat: 4368813). Quantitative real-time PCR is carried out in a 7500 real-time PCR system (Applied Biosystems) using the corresponding primers/probes for human GAPDH gene(ABI Hs99999905_ml) and human TNFα gene(ABI Hs00174128_ml) and ABgene Absolute QPCR ROX 2× master mix(AB-1139/B).
TNFα gene expression is normalized to β-actin gene expression. The gene counts are read from PCR machine Inhibition (%)=(Counts of Model—Counts of Treatment)/(Counts of Model-Counts of Control)×100%. Example 1 is specifically detailed in Table 3.

[2] = system: LPS-induced plasma TNFα production; assay: LPS-induced plasma cytokine production in mouse, TNFα; format: in vivo, Balb/c mice
Description: Balb/c mice (female, body weight from 18 to 20 g) are used in these experiments. The dose dependency, time course study and pharmacokinetic/pharmacodynamic relationship of the test compound are conducted in mice treated with LPS (0.4 mg/kg).
Eight mice/group are administrated with 1 to 100 mg/kg of either the test compound (suspension in 10% acacia) or vehicle by oral gavage at 1 h prior to intraperitoneal injection of 0.4 mg/kg LPS. Ninety minutes after LPS administration, blood samples are collected in tubes containing heparin for anticoagulation. Plasma samples are diluted 3-fold with dilution buffer (R&D, Cat.No. Part 895206, Calibrator Diluent RD5Z). TNFα levels are measured using ELISA kit (R&D, Cat.No. MTA00) based on manufacture's protocol. Data is acquired using a SPECTRAMAX® M2e Plus Plate Reader and analyzed by standard curve fitting.
Alternately, the compound is screened for its ability to inhibit the LPS-induced cytokine production in rat plasma according to the method reported in the literature (Ziegelbauer K, Gantner F, Lukacs N W, et al. Br J. Pharmacol. 2005,145(2):178-92). Briefly, Lewis rats (male, body weight 140 g-180 g) are used in the experiments. Animals (8/group) are given 1 to 100 mg/kg of the testing compound (suspension in 35% solutol & 60% PEG400 & 5% PG) or vehicle by oral gavage at 1 h prior to intraperitoneal administration of LPS 0.4 mg/kg. Ninety minutes after the intraperitoneal administration of LPS, blood is collected in heparin anticoagulated tubes to measure TNFα using R&D System ELISA Kit based on the general Kit protocols. The plasma sample is diluted 100 fold with the dilution buffer and 50 μL of diluted sample is used in each measurement. The plate is read on a SPECTRAMAX® M2e Plus Plate Reader and TNFα levels are analyzed based on the standard curve. The drug levels in plasma are measured with LC-MS-MS. […] Alternately, the compound is screened for its ability to inhibit the LPS-induced cytokine production in mouse plasma. Balb/c mice (female, body weight 18-20 g) are used in the experiments. Mice (8/group) are administrated with 1 to 100 mg/kg of the test compound (suspension in 10% acacia) or vehicle by oral gavage at 1 h prior to introperitoneal (i.p.) administration of LPS (0.4 mg/kg). Ninety minutes after LPS administration, blood is collected with heparin anticoagulated tubes to measure TNFα levels (R&D, Cat.No. MTA00), IL-6 (R&D, Cat.No. M6000B) and IL-1β (R&D, Cat.No. MLB00B) based on the general kit protocols. Diluted or undiluted plasma samples of 50 μL are used for each measurement. […] The plate is read on a SPECTRMAX® M2e Plus Plate Reader and the data is analyzed using a standard curve.

[3] = system: collagen induced arthritis; assay: Rat collagen II induced arthritis (CIA) model; format: in vivo, Wistar Rats; conditions: 30 mg/kg oral bid, day 1 to day 21
Description: To confirm the results obtained in mouse CIA model, the compound is also tested in a CIA model in rat essentially as described in a method reported in the literature (Rosloniec E F, Cremer M, Kang A, Myers L K. Current Protocols in Immunology. 1996, 15.5.1-15.5.24). Briefly, Wistar Rats are immunized intradermally with 200 μg bovine collagen II emulsified in Freund's […] on day 0 and with 100 μg collagen II emulsified in IFA (incomplete Freund's adjuvant) on day 7. The hind paw volume is measured before and after the immunization. The disease development of four paws is quantified with arthritis scores. Rats in normal and model groups are treated with vehicle or drug (treated group). Rats in treated group are orally administered with the testing compound at doses of 3, 10, 30 mg/kg (bid), from day 1 to day 21 after the first immunization. In the LEF group, as a positive control, rats are orally administered with LEF at a dose of 10 mg/kg, q.d.

[4] = mouse, oral 1 h before LPS 0.4 mg/kg i.p.

| SMILES | Inhibition Rate (%) of TNFα induced TNFα gene expression ([1]; Table 4, 3 mg/kg oral) | Inhibition Rate (%) of TNFα induced TNFα gene expression ([1]; Table 4, 10 mg/kg oral) | Inhibition Rate (%) of TNFα induced TNFα gene expression ([1]; Table 4, 30 mg/kg oral) | Inhibition Rate (%) of TNFα induced TNFα gene expression ([1]; Table 4, 60 mg/kg oral) | EC50 [2, 4] | ED50 [2, 4] | arthritis scores and hind paws volume [3] | Inhibition Rate (%) of TNFα induced TNFα gene expression ([1]; 10 mg/kg oral, 2 h) | Inhibition Rate (%) of TNFα induced TNFα gene expression ([1]; 30 mg/kg oral, 2 h) | Inhibition Rate (%) of TNFα induced TNFα gene expression ([1]; 60 mg/kg oral, 2 h) | Inhibition Rate (%) of TNFα induced TNFα gene expression ([1]; 100 mg/kg oral, 2 h) | plasma TNFα level ([2]; 10 mg/kg oral 1 h before LPS 0.4 mg/kg, 90 min after LPS, baseline 2346.2 pg/mL) | inhibition at 10 mg/kg ([2]; Mus musculus, 10 mg/kg oral 1 h before LPS 0.4 mg/kg, p<0.01) |
| --- | --- | --- | --- | --- | --- | --- | --- | --- | --- | --- | --- | --- | --- |
| Cl.O=C(NC1CC1)c1cccc2[nH]c(-c3nc(N[C@@H]4CCC[C@H]4O)ncc3Cl)cc12 [Example 2, 2-{5-Chloro-2-[(1R,2R)-2-hydroxycyclopentylamino]pyrimidin-4-yl}-N-cyclopropyl-1H-indole-4-carboxamide hydrochloride] | 10.7% | 25.3% | 69.7% | 87.8% | ~2.42 µg/mL | 4.84 mg/kg | significantly attenuates collagen induced arthritis | – | – | – | – | – | – |
| O=C(NC1CC1)c1cccc2[nH]c(-c3nc(N[C@@H]4CCC[C@@H]4O)ncc3Cl)cc12 [Example 1, 2-{5-Chloro-2-[(1R,2S)-2-hydroxycyclopentylamino]pyrimidin-4-yl}-N-cyclopropyl-1H-indole-4-carboxamide hydrochloride] | – | – | – | – | – | – | – | 49.1% | 68.5% | 86.2% | 94.9% | 1474.9 pg/mL | 37.1% |

From patent US8501166B2, “Pyrimidinyl indole compounds” (Hutchison Medipharma Limited, priority 2010, dated 2013)
